# Results reported in ChEMBL document CHEMBL3217657, “Rapid assembly of potent type II dehydroquinase inhibitors viaClick chemistry” (Medchemcomm, 2010).
# pKi: −log10 of the molar value.
# Columns and labels:
# [1] = target: T1, 3-dehydroquinate dehydratase (Streptomyces coelicolor (strain ATCC BAA-471 / A3(2) / M145), UniProt P15474); test: (§1) Competitive reversible inhibition of Strepotomyces coelicolor type 2 dehydroquinase expressed in Escherichia coli BL21 (DE3) cells assessed as enone-carboxylate chromophore of 3-dehydroshikimate formation using 3-dehydroquinate as substrate preincubated with enzyme for 3 mins prior to substrate addition by UV spectrophotometric assay
# T1 sequence (P15474 whole entry): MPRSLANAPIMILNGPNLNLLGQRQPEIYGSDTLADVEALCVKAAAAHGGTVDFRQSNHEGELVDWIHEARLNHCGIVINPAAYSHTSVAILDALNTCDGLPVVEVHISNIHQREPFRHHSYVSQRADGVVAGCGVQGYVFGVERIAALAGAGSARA
# [2] = target: T2, 3-dehydroquinate dehydratase (Mycobacterium tuberculosis, UniProt P9WPX7); test: as §1, with “Mycobacterium tuberculosis” for “Strepotomyces coelicolor”
# T2 sequence (P9WPX7 whole entry): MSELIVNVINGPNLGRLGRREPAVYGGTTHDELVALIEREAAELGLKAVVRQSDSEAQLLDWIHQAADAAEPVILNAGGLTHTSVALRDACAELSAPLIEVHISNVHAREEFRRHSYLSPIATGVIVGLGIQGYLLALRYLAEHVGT
# [3] = target: T3, 3-dehydroquinate dehydratase (Helicobacter pylori (strain ATCC 700392 / 26695) (Campylobacterpylori), UniProt Q48255); test: as §1, with “Helicobacter pylori” for “Strepotomyces coelicolor”
# T3 sequence (Q48255 whole entry): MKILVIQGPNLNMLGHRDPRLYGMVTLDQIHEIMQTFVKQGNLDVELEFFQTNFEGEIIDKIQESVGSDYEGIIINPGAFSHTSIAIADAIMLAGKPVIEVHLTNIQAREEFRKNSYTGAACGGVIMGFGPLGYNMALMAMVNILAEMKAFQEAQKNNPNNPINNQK
SMILES,pKi [1],pKi [2],pKi [3]
O=C(O)[C@]1(O)C=C(c2cn(-c3ccccc3)nn2)[C@@H](O)[C@H](O)C1,8.24,7.41,6.65
O=C(O)[C@]1(O)C=C(c2cn(-c3ccc(F)cc3)nn2)[C@@H](O)[C@H](O)C1,7.54,6.81,6.25
O=C(O)[C@]1(O)C=C(c2cn(-c3cccc([N+](=O)[O-])c3)nn2)[C@@H](O)[C@H](O)C1,7.11,6.64,6.27
O=C(O)c1cccc(-n2cc(C3=C[C@@](O)(C(=O)O)C[C@@H](O)[C@@H]3O)nn2)c1,5.76,5.51,5.24
O=C(O)[C@]1(O)C=C(c2cn(-c3ccccc3O)nn2)[C@@H](O)[C@H](O)C1,7.32,6.48,6.80
O=C(O)[C@]1(O)C=C(c2cn(-c3cccnc3)nn2)[C@@H](O)[C@H](O)C1,8.24,6.87,6.43
O=C(O)[C@]1(O)C=C(c2cn(Cc3ccco3)nn2)[C@@H](O)[C@H](O)C1,6.66,5.67,5.66
O=C(O)[C@]1(O)C=C(c2cn(Cc3cccs3)nn2)[C@@H](O)[C@H](O)C1,7.14,5.80,6.03
